Reference: ChEMBL document CHEMBL1130618, “A novel and practical route to A-ring enyne synthon for 1 alpha,25-dihydroxyvitamin D3 analogs: synthesis of A-ring diastereomers of 1 alpha,25-dihydroxyvitamin D2 and 3-methyl-1,25-dihydroxyvitamin D3” (1998)

How the values were obtained:
[1] = test system: HL-60; assay: HL-60 cell differentiation relative to 1-alpha, 25-dihydroxyvitamin D3; format: functional, Homo sapiens
[2] = species: Rattus norvegicus; assay: Compound was evaluated for rat serum Ca concentration in relative to 1-alpha, 25-dihydroxyvitamin D3; format: functional
[3] = test system: HL-60; assay: Effect on HL-60 cell differentiation; format: functional, Homo sapiens
[4] = biological target: T1, Vitamin D3 receptor (Bos taurus) (UniProt Q28037); assay: Binding affinity for bovine thymus Vitamin D3 receptor (VDR)
T1 sequence (whole entry): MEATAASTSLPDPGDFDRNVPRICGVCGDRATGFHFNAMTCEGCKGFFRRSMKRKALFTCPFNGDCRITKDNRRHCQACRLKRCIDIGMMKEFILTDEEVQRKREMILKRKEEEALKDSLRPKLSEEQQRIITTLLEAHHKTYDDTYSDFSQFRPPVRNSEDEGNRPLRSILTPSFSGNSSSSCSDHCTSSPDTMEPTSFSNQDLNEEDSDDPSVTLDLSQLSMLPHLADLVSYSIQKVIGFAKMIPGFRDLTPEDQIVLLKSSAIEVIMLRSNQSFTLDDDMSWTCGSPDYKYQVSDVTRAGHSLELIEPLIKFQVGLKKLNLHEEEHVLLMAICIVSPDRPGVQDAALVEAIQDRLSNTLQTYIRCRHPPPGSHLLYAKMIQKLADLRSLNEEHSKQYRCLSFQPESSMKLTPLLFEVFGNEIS

[5] = species: Rattus norvegicus; assay: Compound was evaluated for rat serum Ca concentration; format: functional

| SMILES | Relative potency [1] | further results |
| --- | --- | --- |
| C=C1/C(=C\C=C2/CCC[C@]3(C)[C@@H]([C@H](C)CCCC(C)(C)O)CC[C@@H]23)C[C@@H](O)[C@@H](C)[C@@H]1O | 10 | Relative potency [2]: 2 |
| C=C1/C(=C\C=C2/CCC[C@]3(C)[C@@H]([C@H](C)CCCC(C)(C)O)CC[C@@H]23)C[C@H](O)[C@@H](C)[C@H]1O | 3 |  |
| C=C1/C(=C\C=C2/CCC[C@]3(C)[C@@H]([C@H](C)CCCC(C)(C)O)CC[C@@H]23)C[C@@H](O)[C@H](C)[C@@H]1O | 200 | Relative potency [2]: 400 |
| C=C1/C(=C\C=C2/CCC[C@]3(C)[C@@H]([C@H](C)CCCC(C)(C)O)CC[C@@H]23)C[C@@H](O)[C@@H](C)[C@H]1O | 1.5 |  |
| C=C1/C(=C\C=C2/CCC[C@]3(C)[C@@H]([C@H](C)CCCC(C)(C)O)CC[C@@H]23)C[C@@H](O)C[C@@H]1O [CALCITRIOL] |  | Relative potency [3]: 100; Relative potency [4]: 100; Relative potency [5]: 100 |
| C=C1/C(=C\C=C2/CCC[C@]3(C)[C@@H]([C@H](C)CCCC(C)(C)O)CC[C@@H]23)C[C@@H](O)[C@H](C)[C@H]1O | 1 |  |
| C=C1/C(=C\C=C2/CCC[C@]3(C)[C@@H]([C@H](C)CCCC(C)(C)O)CC[C@@H]23)C[C@H](O)[C@@H](C)[C@@H]1O | 1.5 |  |
| C=C1/C(=C\C=C2/CCC[C@]3(C)[C@@H]([C@H](C)CCCC(C)(C)O)CC[C@@H]23)C[C@H](O)[C@H](C)[C@H]1O | 0.5 |  |
